Results from US7727736B2, “Soluble phospholipids for use in clotting factor assays” (The University of North Carolina at Chapel Hill, priority 2003, dated 2010).

Key:
plasma = assay: Activated partial thromboplastin time (aPTT) assay; type: biochemical
Protocol: Activated partial thromboplastin time assays were done using an optical detection method to determine clotting time. Two reaction mixtures were created. Mixture A had kaolin in concentrations ranging from 50 g/L to 500 g/L and either phospholipid vesicles (ranging from 0.67 to 240 μM) or C6PS (ranging from 5 μM to 5250 μM) in buffer of 20 mM HEPES (pH 7.4), 150 mM NaCl. Mixture B was 25 mM calcium chloride in a buffer of 20 mM HEPES (pH 7.4), 150 mM NaCl. Plasma, Mixture A, and Mixture B were all incubated at 37° C. for 3 minutes. Mixture A was added to plasma and incubated for 3 minutes at 37° C. Buffer B was added and the optical density was measured. Clotting was detected as an increase in absorbance.
As expected, lipid vesicles shortened the Kaolin induced clotting time in a dose-dependent fashion by as much as 100 seconds. C6PS gave a dose dependent shortening in the clotting time, but the largest decrease was 13 seconds. We speculated that the Kaolin might interfere with C6PS. Since the purpose of Kaolin is to activate the contact factors of coagulation (high molecular weight kininogen, factor XII, and factor XI), we substituted 30 nM activated factor XI for Kaolin in the assay described above.

[1] = molecular target: T1, factor Xa binding to factor Va2 (Homo sapiens, UniProt P00742+P12259); assay: Prothrombinase assembly monitored by initial rate of thrombin formation (DAPA fluorescence, stopped flow), FVa2; type: biochemical; conditions: in presence of 400 μM C6PS
T1 construct: Human prothrombin and factor Xa; tissue Hematologic Technologies Inc. (factor Xa only); factor Xa purchased
T1 sequence (P00742 41-179 limits assumed): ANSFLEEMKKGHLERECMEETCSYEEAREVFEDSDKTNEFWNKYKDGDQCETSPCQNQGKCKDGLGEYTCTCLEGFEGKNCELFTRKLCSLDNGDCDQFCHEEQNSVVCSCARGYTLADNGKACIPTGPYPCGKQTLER
T1 sequence (P00742 235-488 limits assumed): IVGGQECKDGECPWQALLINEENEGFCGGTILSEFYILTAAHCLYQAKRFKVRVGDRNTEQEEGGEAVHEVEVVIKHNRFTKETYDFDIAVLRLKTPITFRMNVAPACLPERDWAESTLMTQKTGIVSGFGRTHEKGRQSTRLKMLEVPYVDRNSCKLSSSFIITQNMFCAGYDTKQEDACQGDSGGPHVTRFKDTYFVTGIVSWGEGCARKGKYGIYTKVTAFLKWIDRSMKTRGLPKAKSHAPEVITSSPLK
T1 sequence (P12259 29-737 limits assumed): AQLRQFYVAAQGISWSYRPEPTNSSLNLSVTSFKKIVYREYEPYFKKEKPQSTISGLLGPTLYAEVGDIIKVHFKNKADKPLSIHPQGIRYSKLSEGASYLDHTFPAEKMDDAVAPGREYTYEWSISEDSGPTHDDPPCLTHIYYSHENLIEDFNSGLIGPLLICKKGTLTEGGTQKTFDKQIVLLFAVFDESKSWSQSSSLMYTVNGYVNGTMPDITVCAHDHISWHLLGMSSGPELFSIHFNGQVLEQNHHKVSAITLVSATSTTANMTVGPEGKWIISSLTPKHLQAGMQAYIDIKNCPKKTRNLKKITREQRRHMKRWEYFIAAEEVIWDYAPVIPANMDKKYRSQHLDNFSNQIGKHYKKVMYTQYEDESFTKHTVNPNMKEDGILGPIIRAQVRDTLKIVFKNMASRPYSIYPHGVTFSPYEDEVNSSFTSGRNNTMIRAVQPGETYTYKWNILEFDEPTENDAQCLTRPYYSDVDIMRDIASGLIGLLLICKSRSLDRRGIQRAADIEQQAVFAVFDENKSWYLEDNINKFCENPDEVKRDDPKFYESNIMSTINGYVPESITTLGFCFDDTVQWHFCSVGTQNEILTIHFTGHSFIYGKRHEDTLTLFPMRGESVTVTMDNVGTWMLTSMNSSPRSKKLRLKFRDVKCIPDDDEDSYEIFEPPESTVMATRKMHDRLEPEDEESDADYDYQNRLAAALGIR
T1 sequence (P12259 1574-2224 limits assumed): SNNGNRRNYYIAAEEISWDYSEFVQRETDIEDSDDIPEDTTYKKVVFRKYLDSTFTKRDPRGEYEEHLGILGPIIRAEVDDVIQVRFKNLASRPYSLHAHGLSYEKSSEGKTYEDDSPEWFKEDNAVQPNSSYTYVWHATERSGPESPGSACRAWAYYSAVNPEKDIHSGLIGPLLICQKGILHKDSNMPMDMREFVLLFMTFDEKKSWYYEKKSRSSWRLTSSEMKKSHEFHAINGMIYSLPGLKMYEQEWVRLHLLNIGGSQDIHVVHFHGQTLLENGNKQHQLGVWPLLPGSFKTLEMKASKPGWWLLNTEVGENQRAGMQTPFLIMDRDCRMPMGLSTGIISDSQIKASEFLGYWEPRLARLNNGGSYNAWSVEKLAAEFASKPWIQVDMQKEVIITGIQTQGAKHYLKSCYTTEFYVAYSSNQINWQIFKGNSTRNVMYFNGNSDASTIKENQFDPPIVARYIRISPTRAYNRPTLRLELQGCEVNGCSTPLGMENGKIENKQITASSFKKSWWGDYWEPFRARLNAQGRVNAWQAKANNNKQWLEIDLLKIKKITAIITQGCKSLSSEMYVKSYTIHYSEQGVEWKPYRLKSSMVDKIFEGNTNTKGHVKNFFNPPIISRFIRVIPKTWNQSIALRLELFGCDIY
Protocol: The initial rate of thrombin formation was monitored by DAPA fluorescence. Stopped flow fluorescence measurements were performed at 37° C. with final mixing chamber concentrations of 1 μM prothrombin, 5 μM DAPA, 1 nM factor Xa, 400 μM C6PS and various concentrations of factor Va2 (Panel A) or Va1 (Panel B) in 50 mM Tris-HCl (pH 7.5), 150 mM NaCl, 5 mM CaCl2. The initial rates were fit to a single binding site model as described herein to determine the Kd^eff of factor Xa binding to factor Va2 in presence of 400 μM C6PS (2.4±0.3 nM). […] The abrupt appearance of aggregates at 700 μM C6PS defines the critical micelle concentration under these experimental conditions.
Fluorescence Stopped-Flow Measurements. The rates of thrombin formation from either MzIIa or Pre2 (with equimolar fragment 1.2), or of thrombin plus MzIIa formation from human prothrombin, were estimated from the time-dependent fluorescence change of DAPA bound to the activation products. […] The calculation of rates from measurements of initial fluorescence intensity (F0) and intensity at the completion of the reaction (F∞) is well-established (Nesheim and Mann (1983) supra; Wu, et al. (2002) supra).
Initial rates of prothrombin activation by FXa as monitored by DAPA fluorescence are shown in FIG. 2 as a function of added FVa2 (Panel A) and FVa1 (Panel B) in the presence of 400 μM C6PS. […]

[2] = CMC of C6PS using ANS as fluorescent probe in the presence of factor IXa; type: physicochemical; conditions: 200 nM factor IXa, 5 mM calcium

For `CCCCCC(=O)OC[C@H](COP(=O)(O)OC[C@H](N)C(=O)O)OC(=O)CCCCC` [C6PS, 1,2-dicaproyl-sn-glycero-3-phospho-L-serine], the “maximal shortening of clotting time” value (plasma; 30 nM activated factor XI substituted for Kaolin) was 20 s, the “largest shortening of the Kaolin induced clotting time” value (plasma; Kaolin as activator) was 13 s and the “fold tighter FVa2 interaction with FXa than FVa1” value [1] was “at least 300 fold”. The “CMC of C6PS” value [2] was 950 µM.
